{"source": "patent US11291840B2", "about": "“Neuronal stimulation model, device and methods using alternate current” (priority 2017, dated 2022)", "molecules": {"B1": {"name": "glial-derived neurotrophic factor (protein, UniProt P39905 78-211, looked up)", "Glial cell line-derived …": "SPDKQMAVLPRRERNRQAAAANPENSRGKGRRGQRGKNRGCVLTAIHLNVTDLGLGYETKEELIFRYCSGSCDAAETTYDKILKNLSRNRRLVSDKVGQACCRPIAFDDDLSFLDDNLVYHILRKHSAKRCGCI", "notes": "neurotrophic factor delivered locally as soluble factor"}, "B2": {"name": "brain-derived neurotrophic factor (protein, UniProt P23560 19-247, looked up)", "Neurotrophic factor BDNF …": "APMKEANIRGQGGLAYPGVRTHGTLESVNGPKAGSRGLTSLADTFEHVIEELLDEDQKVRPNEENNKDADLYTSRVMLSSQVPLEPPLLFLLEEYKNYLDAANMSMRVRRHSDPARRGELSVCDSISEWVTAADKKTAVDMSGGTVTVLEKVPVSKGQLKQYFYETKCNPMGYTKEGCRGIDKRHWNSQCRTTQSYVRALTMDSKKRIGWRFIRIDTSCVCTLTIKRGR", "notes": "as for B1"}, "B3": {"name": "neurotrophin-3 (protein, UniProt P20783 139-257, looked up)", "Neurotrophin-3": "YAEHKSHRGEYSVCDSESLWVTDKSSAIDIRGHQVTVLGEIKTGNSPVKQYFYETRCKEARPVKNGCRGIDDKHWNSQCKTSQTYVRALTSENNKLVGWRWIRIDTSCVCALSRKIGRT", "notes": "as for B1"}}, "system": "dissociated rat cortical neurons", "assay": "Axon 3D growth after local delivery of soluble factors in silk scaffold/collagen gel 3D brain tissue model (β III-tubulin staining, 3D neurite tracing)", "format": "cell-based", "details": "for Axon length: 3D culture, mean±SEM; for axon abundance in center core of 3D cultures (β III-tubulin 2D projections): ECM components compared to neurotrophic factors, ranking among neurotrophic factors; for axons longer compared to BDNF / axons longer compared to the control: axon lengths at DIV 7, 4 days exposure; for axons longer compared to BDNF: vs BDNF; for axons longer compared to the control: vs control culture", "source_text": "In one aspect of the present disclosure, control of axon growth and alignment in a CNS environment is critical for nervous system development and regenerative growth. The present disclosure explores the effects of exogenous stimulus of electrical signals and soluble factors on axon 3D growth, using a silk protein material-based 3D brain tissue model. A pair of gold wires were threaded into the 3D tissue model, positioned at the interface of the scaffold region and the center gel region, spanning the axon growth area. This setup delivered applied electrical field directly to growing axons, and the effects were compared to local delivery of soluble factors including extracellular (ECM) components and neurotrophic factors. In one embodiment, dissociated rat cortical neurons were exposed to an alternating field of 80 mV/mm at 0.5 Hz to 2 kHz or soluble factors for up to 4 days, starting on day 3 in vitro (DIV 3), and evaluated by of β III-tubulin immunostaining, confocal imaging and 3D neurite tracing. […] In one embodiment, though axon lengths under 2 Hz stimulation and LN or FN exposure were statistically similar, significant AC-induced axon orientation was found under all frequencies tested. In one embodiment, the effects include perpendicular orientation of axons trespassing an electrode and aligned axon tracts in parallel to the field direction. In one embodiment, the electrode in AC field acts as an alternating cathode that attracts the growing tip of the axon, and AC field between pair electrodes orient axon tract formation in parallel to the field direction. Provided in this disclosure is the use of alternating electric field stimulation to direct axon 3D length growth and orientation. In one aspect, the present disclosure provides stimulation parameters, in conjunction of delivery of growth promoting soluble factors in a brain mimetic 3D environment. In one aspect, the present disclosure teaches the fundamental effects of electrical fields on nervous system development and for testing neuromodulation approaches to promote neural regeneration.\nThe 3D brain tissue is composed of silk protein material-based scaffold and infused extracellular matrix (ECM) gel, such as collagen type I gel used in this study, as described previously (Tang-Schomer, 2014, 2015). The center region of the donut-shaped scaffold is filled with ECM gel only, for axon outgrowth; whereas the cell bodies are confined to the scaffold region. […]\nAxon growth in the 3D brain tissue model was compared after local delivery of soluble factors, including extracellular matrix components such as laminin (LN) and fibronectin (FN) and brain-derived neurotrophic factor (BDNF), glial-derived neurotrophic factor (GDNF), neurotrophin-3 (NT3), and nerve growth factor (NGF) (FIGS. 13A-M). FIGS. 13A-J show representative 2D projections of β III-tubulin stained axons in the center core of 3D cultures.\nThe rat brain tissue dissociation protocol was approved by Tufts University Institutional Animal Care and Use Committee and complies with the NIH Guide for the Care and Use of Laboratory Animals (IACUC #B2011-45). Cortices from embryonic day 18 (E18) Sprague Dawley rats (Charles River, Wilmington, Mass., USA) were isolated, dissociated with trypsin (0.3%, Sigma) and DNase (0.2%, Roche Applied Science, Indianapolis, Ind., USA) followed with trypsin inhibition with soybean proteins (1 mg/mL, Sigma), centrifuged, and plated at 200,000-625,000 cells/cm^2 in NeuroBasal media (Invitrogen, Carlsbad, Calif., USA) supplemented with B-27 neural supplement, penicillin/streptomycin (100 U/mL and 100 μg/mL), and GlutaMax (2 mM) (Invitrogen). Cultures were maintained in 37° C., 100% humidity and 5% CO2 in an incubator (Forma Scientific, Marietta, Ohio, USA) for up to 16 days in vitro (DIV 1-16). Cultures of DIV 14-16 were used for stimulation.\nSilk solution and porous scaffolds were prepared from Bombyx mori cocoons as described previously (Tang-Schomer et al., 2014). […]", "key": {"[1]": {"details": "48 hr exposure after local delivery of soluble factor"}, "[2]": {"details": "4 ds exposure of soluble factor (DIV 7), in µm"}}, "data": [{"molecule": "fibronectin [FN]", "values": [{"measurement": "Axon length", "setting": "[1]", "result": "1220.7±57.5", "unit": "μm"}, {"measurement": "Axon length", "setting": "[2]", "result": "1411.8±45.1"}, {"measurement": "axon abundance in center core of 3D cultures (β III-tubulin 2D projections)", "result": "more abundant axons"}, {"measurement": "axons longer compared to BDNF", "result": "~25", "unit": "%"}, {"measurement": "axons longer compared to the control", "result": "~41", "unit": "%"}]}, {"molecule": "laminin [LN]", "values": [{"measurement": "Axon length", "setting": "[1]", "result": "1237.7±51.3", "unit": "μm"}, {"measurement": "Axon length", "setting": "[2]", "result": "1332.5±71.0"}, {"measurement": "axon abundance in center core of 3D cultures (β III-tubulin 2D projections)", "result": "more abundant axons"}, {"measurement": "axons longer compared to BDNF", "result": "~18", "unit": "%"}, {"measurement": "axons longer compared to the control", "result": "~33", "unit": "%"}]}, {"molecule": "nerve growth factor [NGF]", "values": [{"measurement": "Axon length", "setting": "[1]", "result": "706.5±33.4", "unit": "μm"}, {"measurement": "Axon length", "setting": "[2]", "result": "1045.6±61.9"}]}, {"molecule": "B1", "values": [{"measurement": "Axon length", "setting": "[1]", "result": "802.5±38.0", "unit": "μm"}, {"measurement": "Axon length", "setting": "[2]", "result": "1068.3±43.9"}]}, {"molecule": "B2", "values": [{"measurement": "Axon length", "setting": "[1]", "result": "946.8±35.2", "unit": "μm"}, {"measurement": "Axon length", "setting": "[2]", "result": "1131.1±52.0"}, {"measurement": "axon abundance in center core of 3D cultures (β III-tubulin 2D projections)", "result": "most abundant axons"}, {"measurement": "axons longer compared to the control", "result": "~13", "unit": "%"}]}, {"molecule": "B3", "values": [{"measurement": "axon appearance after 48 hr exposure", "setting": "48 hr exposure", "result": "robust growth"}, {"measurement": "Axon length", "setting": "[1]", "result": "728.2±42.5", "unit": "μm"}, {"measurement": "axon appearance after 4 days", "setting": "4 days after local delivery", "result": "signs of axon degeneration"}, {"measurement": "Axon length", "setting": "[2]", "result": "784.3±71.6"}]}]}
